Experimental data: patent publication US20240051955A1, “4-AMINO-3-(4-PHENOXYPHENYL)-1,3-DIHYDRO-2H-IMIDAZO[4,5-C]PYRIDIN-2-ONE DERIVATIVES AND SALTS THEREOF” (Genzyme Corporation, priority 2020, published 2024)

Key:
Dopamine transporter (h) = Dopamine transporter (h) (Homo sapiens (Human), UniProt Q01959); test: Dopamine transporter (h) binding assay, [3H]BTCP; settings: Human recombinant (CHO cells); [3H]BTCP 4 nM; 120 min 4° C.
Method: (§1) Compounds of Formula Ia, Formula Ib, Formula III, Formula IV, and Formula V were tested in various in vitro assays. Compound binding was calculated as a % inhibition of the binding of a radioactively labeled ligand specific for each target. Compound enzyme inhibition effect was calculated as a % inhibition of control enzyme activity.
The general procedure is noted below. See Pristupa, Z. B. et al. (1994), Mol. Pharmacol., 45: 125-135. Minor variations to the experimental protocol described below may have occurred during the testing, but if so, they had no impact on the quality of the results obtained.

BTK(h) = BTK(h) (Homo sapiens (Human), UniProt Q06187); test: BTK(h) kinase activity study; assay type: biochemical; settings: no pre-incubation of compound with enzyme/substrate mix prior to ATP addition
Method: Compounds of Formula Ib, Formula II, and Formula III were tested against BTK(h) as described herein. All compounds tested were prepared to a working stock of 50× final assay concentration in 100% DMSO. Where appropriate, more concentrated stocks were diluted manually to 50× using 100% DMSO. Compounds, which were powders, were reconstituted to a 10 mM stock in 100% DMSO before further dilution to 50×.
The required volume of the 50× stock of test compound was added to the assay well before a reaction mix containing the enzyme and substrate was added. The reaction was initiated by the addition of ATP at the selected concentration. There was no pre-incubation of the compound with the enzyme/substrate mix prior to ATP addition.
Results are expressed as kinase activity remaining, as a percentage of the DMSO control. This is calculated using the following formula: […]
For IC50 determinations, data are analyzed using XLFit version 5.3 (ID Business Solutions). Sigmoidal dose-response (variable slope) curves are fit based on the mean result for each test concentration using non-linear regression analysis. Where the top and/or bottom of the curve fall >10% out with 100 and 0, respectively, either or both of these limits may be constrained at 100 and 0, provided that the QC criterion on R^2 is met.

δ (DOP) (h) = δ (DOP) (h) (Homo sapiens (Human), UniProt P41143); test: δ (DOP) (h) binding assay, [3H]DADLE; settings: Human recombinant (Chem-1 (RBL) cells); [3H]DADLE 0.5 nM; 60 min RT
Method: as §1
The general procedure is noted below. See Simonin, F. et al. (1994), Mol. Pharmacol., 46: 1015-1021. Minor variations to the experimental protocol described below may have occurred during the testing but if so, they had no impact on the quality of the results obtained.

H2 (h) = H2 (h) (Homo sapiens (Human), UniProt P25021); test: H2 (h) binding assay, [125I]APT; settings: Human recombinant (CHO cells); [125I]APT 0.075 nM; 120 min RT
kappa (h) (KOP) = kappa (h) (KOP) (Homo sapiens (Human), UniProt P41145); test: kappa (h) (KOP) binding assay, [3H]U69593; settings: Human recombinant (RBL cells); [3H]U69593 0.5 nM; 60 min RT
Method: as §1
The general procedure is noted below. See Simonin, F. et al. (1995), Proc. Natl. Acad. Sci. U.S.A., 92: 7006-7010. Minor variations to the experimental protocol described below may have occurred during the testing but if so, they had no impact on the quality of the results obtained.

5-HT5a (h) = 5-HT5a (h) (Homo sapiens (Human), UniProt P47898); test: 5-HT5a (h) binding assay, [3H]LSD; settings: Human recombinant (HEK-293 cells); [3H]LSD 1.5 nM; 120 min 37° C.
Method: as §1
The general procedure is noted below. See Rees, S. et al. (1994), FEBS Lett., 355: 242-246. Minor variations to the experimental protocol described below may have occurred during the testing but if so, they had no impact on the quality of the results obtained.

[1] = molecular target: Norepinephrine transporter (h) (Homo sapiens (Human), UniProt P23975); test: Norepinephrine transporter (h) binding assay, [3H]nisoxetine; settings: Human recombinant (CHO cells); [3H]nisoxetine 1 nM; 120 min 4° C.
Method: as §1
The general procedure is noted below. See Pacholczyk, T. et al. (1991), Nature, 350: 350-354. Minor variations to the experimental protocol described below may have occurred during the testing but if so, they had no impact on the quality of the results obtained.

Sequence of BTK(h) (Q06187 whole entry): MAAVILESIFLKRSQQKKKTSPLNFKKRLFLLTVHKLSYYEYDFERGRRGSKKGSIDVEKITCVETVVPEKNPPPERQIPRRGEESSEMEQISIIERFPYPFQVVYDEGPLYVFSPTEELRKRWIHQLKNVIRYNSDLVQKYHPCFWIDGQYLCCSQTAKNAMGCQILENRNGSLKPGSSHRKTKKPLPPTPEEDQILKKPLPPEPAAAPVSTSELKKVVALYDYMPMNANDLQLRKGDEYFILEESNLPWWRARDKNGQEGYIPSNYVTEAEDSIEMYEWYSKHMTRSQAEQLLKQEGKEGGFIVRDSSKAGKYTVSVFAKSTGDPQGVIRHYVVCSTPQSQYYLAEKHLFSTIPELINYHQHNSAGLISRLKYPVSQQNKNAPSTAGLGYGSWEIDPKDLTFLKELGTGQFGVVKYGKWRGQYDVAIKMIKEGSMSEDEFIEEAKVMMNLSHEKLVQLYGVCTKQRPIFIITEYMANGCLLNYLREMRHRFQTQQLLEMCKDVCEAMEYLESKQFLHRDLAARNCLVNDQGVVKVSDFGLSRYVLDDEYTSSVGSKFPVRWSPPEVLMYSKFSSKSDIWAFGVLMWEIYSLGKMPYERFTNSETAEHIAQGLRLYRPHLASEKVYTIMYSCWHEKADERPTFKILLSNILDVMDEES
Sequence of Dopamine transporter (h) (Q01959 whole entry): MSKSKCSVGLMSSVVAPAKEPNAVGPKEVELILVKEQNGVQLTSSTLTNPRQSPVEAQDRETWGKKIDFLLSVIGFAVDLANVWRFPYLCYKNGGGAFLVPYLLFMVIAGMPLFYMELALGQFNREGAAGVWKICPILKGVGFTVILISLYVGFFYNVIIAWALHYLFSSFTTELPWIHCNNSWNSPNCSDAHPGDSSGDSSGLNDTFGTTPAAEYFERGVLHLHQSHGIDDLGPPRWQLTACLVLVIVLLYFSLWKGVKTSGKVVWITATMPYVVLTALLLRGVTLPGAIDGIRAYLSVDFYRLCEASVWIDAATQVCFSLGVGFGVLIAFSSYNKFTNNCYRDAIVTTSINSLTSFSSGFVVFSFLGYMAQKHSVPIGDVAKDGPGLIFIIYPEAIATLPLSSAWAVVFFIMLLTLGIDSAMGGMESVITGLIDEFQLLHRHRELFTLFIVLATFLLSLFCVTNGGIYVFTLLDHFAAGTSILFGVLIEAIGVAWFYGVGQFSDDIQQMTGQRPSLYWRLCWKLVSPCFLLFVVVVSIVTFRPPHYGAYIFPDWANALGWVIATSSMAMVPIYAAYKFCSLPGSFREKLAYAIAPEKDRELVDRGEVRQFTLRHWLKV
Sequence of Norepinephrine transporter (h) (P23975 whole entry): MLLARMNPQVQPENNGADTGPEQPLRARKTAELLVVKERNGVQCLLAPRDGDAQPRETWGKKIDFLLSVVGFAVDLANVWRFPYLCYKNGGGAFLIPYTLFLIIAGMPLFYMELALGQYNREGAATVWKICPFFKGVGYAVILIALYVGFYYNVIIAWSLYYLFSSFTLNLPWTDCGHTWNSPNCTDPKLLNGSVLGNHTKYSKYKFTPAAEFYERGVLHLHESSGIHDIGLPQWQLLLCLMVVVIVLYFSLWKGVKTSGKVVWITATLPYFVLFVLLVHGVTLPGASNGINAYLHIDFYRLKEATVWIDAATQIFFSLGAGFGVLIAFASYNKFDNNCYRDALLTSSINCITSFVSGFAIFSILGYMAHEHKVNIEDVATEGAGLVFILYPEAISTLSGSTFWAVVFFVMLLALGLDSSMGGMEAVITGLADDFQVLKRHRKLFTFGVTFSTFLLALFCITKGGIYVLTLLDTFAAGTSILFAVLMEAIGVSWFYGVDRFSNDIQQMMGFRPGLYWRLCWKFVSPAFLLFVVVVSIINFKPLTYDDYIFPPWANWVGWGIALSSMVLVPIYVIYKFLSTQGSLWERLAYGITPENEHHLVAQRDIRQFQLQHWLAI
Sequence of H2 (h) (P25021 whole entry): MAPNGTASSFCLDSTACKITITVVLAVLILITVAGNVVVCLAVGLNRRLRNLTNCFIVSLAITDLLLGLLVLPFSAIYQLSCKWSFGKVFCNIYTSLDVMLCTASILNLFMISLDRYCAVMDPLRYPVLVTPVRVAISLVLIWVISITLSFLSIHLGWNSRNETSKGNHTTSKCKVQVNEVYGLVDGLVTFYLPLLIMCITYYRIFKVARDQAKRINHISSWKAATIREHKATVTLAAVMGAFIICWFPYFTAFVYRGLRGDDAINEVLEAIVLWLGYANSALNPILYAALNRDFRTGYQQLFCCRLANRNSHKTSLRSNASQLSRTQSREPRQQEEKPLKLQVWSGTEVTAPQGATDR
Sequence of 5-HT5a (h) (P47898 whole entry): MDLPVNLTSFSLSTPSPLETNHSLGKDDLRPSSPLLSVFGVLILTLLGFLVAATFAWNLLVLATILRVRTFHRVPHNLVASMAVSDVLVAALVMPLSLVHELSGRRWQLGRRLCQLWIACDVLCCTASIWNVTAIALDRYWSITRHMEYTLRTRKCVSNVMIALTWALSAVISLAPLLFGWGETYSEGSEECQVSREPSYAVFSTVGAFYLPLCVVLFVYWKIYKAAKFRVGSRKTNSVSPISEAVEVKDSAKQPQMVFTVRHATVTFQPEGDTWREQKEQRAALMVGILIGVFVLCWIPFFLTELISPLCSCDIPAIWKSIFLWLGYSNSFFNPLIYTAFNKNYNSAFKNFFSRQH
Sequence of δ (DOP) (h) (P41143 whole entry): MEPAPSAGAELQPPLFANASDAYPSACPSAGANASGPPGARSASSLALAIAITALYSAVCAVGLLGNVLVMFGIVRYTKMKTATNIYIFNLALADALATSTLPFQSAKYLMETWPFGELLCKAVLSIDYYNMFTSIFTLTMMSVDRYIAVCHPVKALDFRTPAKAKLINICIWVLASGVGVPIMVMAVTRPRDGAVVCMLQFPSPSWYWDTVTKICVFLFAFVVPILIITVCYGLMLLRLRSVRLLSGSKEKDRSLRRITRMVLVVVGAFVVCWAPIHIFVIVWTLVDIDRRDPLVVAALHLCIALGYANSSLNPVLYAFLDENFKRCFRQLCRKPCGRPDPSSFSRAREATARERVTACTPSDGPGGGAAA
Sequence of kappa (h) (KOP) (P41145 whole entry): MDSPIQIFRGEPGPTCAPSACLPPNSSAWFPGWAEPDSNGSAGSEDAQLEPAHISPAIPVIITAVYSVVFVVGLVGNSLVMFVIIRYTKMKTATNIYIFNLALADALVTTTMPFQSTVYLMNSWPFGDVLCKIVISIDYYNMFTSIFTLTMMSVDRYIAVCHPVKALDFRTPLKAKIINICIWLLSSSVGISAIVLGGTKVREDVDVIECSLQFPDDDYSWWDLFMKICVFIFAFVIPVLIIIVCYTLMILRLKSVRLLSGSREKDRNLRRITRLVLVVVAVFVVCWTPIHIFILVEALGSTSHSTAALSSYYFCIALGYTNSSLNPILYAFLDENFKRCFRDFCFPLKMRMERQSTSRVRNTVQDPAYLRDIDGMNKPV

Row | % inhibition of the binding of radioactively labeled ligand (Dopamine transporter (h)) [%] | IC50 (BTK(h)) [nM] | % inhibition of the binding of radioactively labeled ligand (δ (DOP) (h)) [%] | % inhibition of the binding of radioactively labeled ligand (H2 (h)) [%] | % inhibition of the binding of radioactively labeled ligand (kappa (h) (KOP)) [%] | % inhibition of the binding of radioactively labeled ligand (5-HT5a (h)) [%] | % inhibition of the binding of radioactively labeled ligand [1] [%] | Compound
1 | 65 | – | – | – | – | – | – | C=CC(=O)N1C[C@@H](O)C[C@@H](n2c(=O)n(-c3ccc(Oc4ccccc4)cc3)c3c(N)nccc32)C1 [Formula Ia, 4-amino-1-[(3R,5S)-5-hydroxy-1-prop-2-enoyl-3-piperidyl]-3-(4-phenoxyphenyl)imidazo[4,5-c]pyridin-2-one]
2 | – | 34 | – | – | – | – | – | C=CC(=O)N1C[C@H](O)C[C@@H](n2c(=O)n(-c3ccc(Oc4ccccc4)cc3)c3c(N)nccc32)C1 [Formula Ib, 4-amino-1-[(3R,5R)-5-hydroxy-1-prop-2-enoyl-3-piperidyl]-3-(4-phenoxyphenyl)imidazo[4,5-c]pyridin-2-one]
3 | – | 279 | – | – | – | – | – | Nc1nccc2c1n(-c1ccc(Oc3ccccc3)cc1)c(=O)n2[C@@H]1CCCN(C(=O)C(O)CO)C1 (stereo partly drawn) [Formula II, 4-amino-3-(4-phenoxyphenyl)-1-[(3R)-1-(2,3-dihydroxypropanoyl)-3-piperidyl]imidazo[4,5-c]pyridin-2-one]
4 | 96.2 | 1380 | 56.7 | 56.7 | 54.6 | 56.1 | 66.7 | Nc1nccc2c1n(-c1ccc(Oc3ccccc3)cc1)c(=O)n2[C@@H]1CCCNC1 [Formula III]
